Measurements as given in patent US12540131B2 (Merck Sharp & Dohme LLC, priority 2019, dated 2026).

Target: GST tagged truncated human mutant G2019S LRRK2 (Homo sapiens (Human), UniProt Q5S007, G2019S)
Experiment: LRRK2 Km ATP LanthaScreen Assay
Format: biochemical
Conditions: G2019S LRRK2, 134 μM ATP (Km ATP), mean values; for IC50: read-out: LRRK2 pIC50 (converted)
Method in brief: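 Enzyme (GST-tagged, truncated) was preincubated with compound for 15 min at RT in 50 mM Tris pH 8.5, 10 mM MgCl2, 0.01% Brij-35, 1 mM EGTA, 2 mM DTT and 0.05 mM orthovanadate. Fluorescein-LRRKtide and 134 μM ATP (Km) were then added for 90 min. EDTA and Tb-anti-pERM antibody stopped the reaction; the TR-FRET 520/495 ratio gave 4-parameter IC50s, reported as mean pIC50.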

GST tagged truncated human mutant G2019S LRRK2, sequence (Q5S007 970-2527 G2019S): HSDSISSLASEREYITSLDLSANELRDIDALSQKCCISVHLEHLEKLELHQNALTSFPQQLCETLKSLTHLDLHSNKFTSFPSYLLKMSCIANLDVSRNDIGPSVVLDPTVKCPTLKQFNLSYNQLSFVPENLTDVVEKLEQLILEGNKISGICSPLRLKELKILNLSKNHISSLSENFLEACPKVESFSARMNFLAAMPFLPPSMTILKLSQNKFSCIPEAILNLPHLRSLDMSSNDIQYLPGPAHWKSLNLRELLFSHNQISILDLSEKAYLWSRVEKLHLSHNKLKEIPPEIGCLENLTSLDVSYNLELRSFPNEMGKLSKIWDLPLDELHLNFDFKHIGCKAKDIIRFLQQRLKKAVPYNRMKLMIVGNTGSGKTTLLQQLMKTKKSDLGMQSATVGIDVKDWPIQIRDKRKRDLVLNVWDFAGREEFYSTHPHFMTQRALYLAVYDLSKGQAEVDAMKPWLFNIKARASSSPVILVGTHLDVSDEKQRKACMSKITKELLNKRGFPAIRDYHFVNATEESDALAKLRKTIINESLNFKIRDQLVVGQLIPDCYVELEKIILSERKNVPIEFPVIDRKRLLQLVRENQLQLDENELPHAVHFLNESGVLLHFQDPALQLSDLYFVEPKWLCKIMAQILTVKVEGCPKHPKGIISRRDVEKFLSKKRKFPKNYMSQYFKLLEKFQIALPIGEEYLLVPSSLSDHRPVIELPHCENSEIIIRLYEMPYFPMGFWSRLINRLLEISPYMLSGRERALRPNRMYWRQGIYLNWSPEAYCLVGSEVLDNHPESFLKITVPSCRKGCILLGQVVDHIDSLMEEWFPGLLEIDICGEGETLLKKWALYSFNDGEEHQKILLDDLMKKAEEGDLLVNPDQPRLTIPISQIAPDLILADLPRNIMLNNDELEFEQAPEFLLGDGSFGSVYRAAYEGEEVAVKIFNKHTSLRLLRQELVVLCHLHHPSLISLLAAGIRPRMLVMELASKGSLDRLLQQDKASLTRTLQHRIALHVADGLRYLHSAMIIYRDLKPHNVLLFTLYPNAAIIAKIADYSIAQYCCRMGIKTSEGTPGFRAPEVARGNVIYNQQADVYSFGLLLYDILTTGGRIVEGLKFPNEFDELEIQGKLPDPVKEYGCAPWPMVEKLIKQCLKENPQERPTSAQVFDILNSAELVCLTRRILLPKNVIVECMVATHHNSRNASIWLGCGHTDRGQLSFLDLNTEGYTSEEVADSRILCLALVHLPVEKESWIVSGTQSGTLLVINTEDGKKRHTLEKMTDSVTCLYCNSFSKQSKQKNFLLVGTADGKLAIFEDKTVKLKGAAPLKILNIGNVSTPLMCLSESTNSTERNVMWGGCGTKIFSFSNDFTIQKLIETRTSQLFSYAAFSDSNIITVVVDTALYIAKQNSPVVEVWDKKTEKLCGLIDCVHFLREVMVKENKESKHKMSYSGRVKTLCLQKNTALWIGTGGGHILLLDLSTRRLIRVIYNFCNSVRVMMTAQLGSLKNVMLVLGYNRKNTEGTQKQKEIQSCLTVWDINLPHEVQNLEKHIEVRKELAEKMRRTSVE

| Compound | IC50 [nM] | LRRK2 pIC50 |
| --- | --- | --- |
| Cc1cc2cnc(Nc3cnn(C4CC4(F)F)c3Cl)nc2cc1C1CCN([C@@H]2COC[C@@H]2O)CC1 (stereo in doubt) [Ex-2.34, 4-[4-(2-{[5-chloro-1-(2,2-difluorocyclopropyl)-1H-pyrazol-4-yl]amino}-6-methylquinazolin-7-yl)piperidin-1-yl]oxolan-3-ol] | < 0.631 | – |
| Cc1nsc(Nc2ncc3cc(Cl)c(C4CCN(C5CCOC5)CC4)cc3n2)c1Cl (single isomer, unassigned) [Ex-8.19, (S) or (R) 6-chloro-N-(4-chloro-3-methyl-1,2-thiazol-5-yl)-7-[1-(oxolan-3-yl)piperidin-4-yl]quinazolin-2-amine] | 1.15 | – |
| Cc1c(Nc2ncc3cc(Cl)c(C4CCN(C[C@H](O)c5cccc(F)c5F)CC4)cc3n2)cnn1C1CC1 [Ex-4.206, (1R)-2-(4-{6-chloro-2-[(1-cyclopropyl-5-methyl-1H-pyrazol-4-yl)amino]quinazolin-7-yl}piperidin-1-yl)-1-(2,3-difluorophenyl)ethan-1-ol] | – | 7.90 |
| Cc1c(Nc2ncc3cc(Cl)c(C4CCN(C[C@@H](O)c5cccc(F)c5F)CC4)cc3n2)cnn1C1CC1 [Ex-4.207, (1S)-2-(4-{6-chloro-2-[(1-cyclopropyl-5-methyl-1H-pyrazol-4-yl)amino]quinazolin-7-yl}piperidin-1-yl)-1-(2,3-difluorophenyl)ethan-1-ol] | – | 8.31 |
| Cc1c(Nc2ncc3cc(Cl)c(C4CCN(C5(C)CCCC5O)CC4)cc3n2)cnn1C1CC1 (single isomer, unassigned) [Ex-1.19, (1R,2S) or (1S,2R) or (1S,2S) or (1R,2R) 2-(4-(6-chloro-2-((1-cyclopropyl-5-methyl-1H-pyrazol-4-yl)amino)quinazolin-7-yl)piperidin-1-yl)-2-methylcyclopentan-1-ol] | – | 7.59 |
| CC1(N2CCC(c3cc4nc(Nc5cnn(C67CC(CO)(C6)C7)c5)ncc4cc3Cl)CC2)COC1 [Ex-2.57, {3-[4-({6-chloro-7-[1-(3-methyloxetan-3-yl)piperidin-4-yl]quinazolin-2-yl}amino)-1H-pyrazol-1-yl]bicyclo[1.1.1]pentan-1-yl}methanol] | – | >9.20 |
| C[C@@H]1CC(c2cc3nc(Nc4cnn(C5CC5)c4Cl)ncc3cc2Cl)CCN1C1COC1 (single isomer, unassigned) [Ex-1.11, (S) or (R) 6-chloro-N-(5-chloro-1-cyclopropyl-1H-pyrazol-4-yl)-7-(2-methyl-1-(oxetan-3-yl)piperidin-4-yl)quinazolin-2-amine] | < 0.631 | – |
| CO[C@H]1COC[C@H]1N1CC[C@@H](c2cc3nc(Nc4cnn(C5CC5(F)F)c4Cl)ncc3cc2C)[C@H](F)C1 (single isomer, unassigned) [Ex-4.244, (R)(3S,4S)(3S,4S) or (R)(3S,4S)(3R,4R) or (R)(3R,4R)(3S,4S) or (R)(3R,4R)(3R,4R) or (S)(3S,4S)(3S,4S) or (S)(3S,4S)(3R,4R) or (S)(3R,4R)(3S,4S) or (S)(3R,4R)(3R,4R) N-[5-chloro-1-(2,2-difluorocyclopropyl)-1H-pyrazol-4-yl]-7-[3-fluoro-1-(4-methoxyoxolan-3-yl)piperidin-4-yl]-6-methylquinazolin-2-amine] | – | >9.20 |
| Clc1cc2cnc(Nc3cnn(C4CC4)c3Cl)nc2cc1C1CC2(C1)CN(C1COC1)C2 [Ex-4.119, 6-chloro-N-(5-chloro-1-cyclopropyl-1H-pyrazol-4-yl)-7-(2-(oxetan-3-yl)-2-azaspiro[3.3]heptan-6-yl)quinazolin-2-amine] | – | 7.96 |
| Cn1ncc(Nc2ncc3cc(Cl)c([C@H]4CCN([C@H]5COC[C@H]5O)C[C@@H]4F)cc3n2)c1C1CC1 (single isomer, unassigned) [Ex-4.242, (3S,4S)(3S,4S) or (3S,4S)(3R,4R) or (3R,4R)(3S,4S) or (3R,4R)(3R,4R) 4-(4-{6-chloro-2-[(5-cyclopropyl-1-methyl-1H-pyrazol-4-yl)amino]quinazolin-7-yl}-3-fluoropiperidin-1-yl)oxolan-3-ol] | – | 7.67 |
| CC1OCC1N1CCC(c2cc3nc(Nc4cnn(CC(C)(C)O)c4Cl)ncc3cc2Cl)CC1 (single isomer, unassigned) [Ex-4.76, (2R,3R) or (2S,3S) or (2S,3R) or (2R,3S) 1-[5-chloro-4-({6-chloro-7-[1-(2-methyloxetan-3-yl)piperidin-4-yl]quinazolin-2-yl}amino)-1H-pyrazol-1-yl]-2-methylpropan-2-ol] | – | >9.20 |
| Cn1nc(C(C)(C)C)cc1Nc1ncc2cc(Cl)c(C3CCN([C@]4(C)COC[C@@H]4O)CC3)cc2n1 (single isomer, unassigned) [Ex-2.83, (3S,4S) or (3R,4R) 4-(4-{2-[(3-tert-butyl-1-methyl-1H-pyrazol-5-yl)amino]-6-chloroquinazolin-7-yl}piperidin-1-yl)-4-methyloxolan-3-ol] | – | 8.71 |
| Cc1cc2cnc(Nc3cnn(CC(C)(C)O)c3C)nc2cc1[C@@H]1CCN(C2COC2)C[C@H]1F (single isomer, unassigned) [Ex-5.5, (3S,4S) or (3R,4R) 1-[4-({7-[3-fluoro-1-(oxetan-3-yl)piperidin-4-yl]-6-methylquinazolin-2-yl}amino)-5-methyl-1H-pyrazol-1-yl]-2-methylpropan-2-ol] | – | 8.37 |
| Cc1cc2cnc(Nc3cnn(C4CC4)c3Cl)nc2cc1[C@@H]1CCN([C@@]2(C)COC[C@H]2O)C[C@H]1F (single isomer, unassigned) [Ex-4.148, (3S,4S)(3S,4S) or (3S,4S)(3R,4R) or (3R,4R)(3S,4S) or (3R,4R)(3R,4R) 4-(4-{2-[(5-chloro-1-cyclopropyl-1H-pyrazol-4-yl)amino]-6-methylquinazolin-7-yl}-3-fluoropiperidin-1-yl)-4-methyloxolan-3-ol] | – | >9.20 |
| Cc1c(Nc2ncc3cc(Cl)c(C4CCN(C5(C)COC5)CC4)cc3n2)cnn1C1CCOC1 (single isomer, unassigned) [Ex-2.25, (S) or (R) 6-chloro-7-[1-(3-methyloxetan-3-yl)piperidin-4-yl]-N-[5-methyl-1-(oxolan-3-yl)-1H-pyrazol-4-yl]quinazolin-2-amine] | 0.891 | – |
| CC1(n2ncc(Nc3ncc4cc(Cl)c(C5CCN([C@]6(C)COC[C@@H]6O)CC5)cc4n3)c2Cl)CC1 (single isomer, unassigned) [Ex-2.88, (3S,4S) or (3R,4R) 4-[4-(6-chloro-2-{[5-chloro-1-(1-methylcyclopropyl)-1H-pyrazol-4-yl]amino}quinazolin-7-yl)piperidin-1-yl]-4-methyloxolan-3-ol] | – | >9.20 |
| Cc1c(Nc2ncc3cc(Cl)c(C4CCN(C[C@H](O)c5cccc(F)c5)CC4)cc3n2)cnn1C1CC1 [Ex-4.195, (1R)-2-(4-{6-chloro-2-[(1-cyclopropyl-5-methyl-1H-pyrazol-4-yl)amino]quinazolin-7-yl}piperidin-1-yl)-1-(3-fluorophenyl)ethan-1-ol] | – | 8.24 |
